Results as given in publication PMC5415086 (Nature, 2010).

Tests used:
[1] = test system: bone marrow-derived macrophages (BMDMs); assay: LPS-inducible gene expression in macrophages; format: cell-based, C57BL/6 mice; conditions: for number of LPS-inducible genes down-regulated: I-BET 1 μM, >2 fold
[2] = test system: bone marrow-derived macrophages (BMDMs); assay: gene transcription in BMDMs without LPS stimulation; format: cell-based, C57BL/6 mice; conditions: absence of LPS stimulation
[3] = molecular target: CBP (Homo sapiens, UniProt Q92793); assay: histone acetyltransferase; format: biochemical
[4] = test system: bone marrow-derived macrophages (BMDMs); assay: viability of BMDMs; format: cell-based, C57BL/6 mice
[5] = molecular target: pCAF (Homo sapiens, UniProt Q92831); assay: histone acetyltransferase; format: biochemical
[6] = test system: bone marrow-derived macrophages (BMDMs); assay: LPS-induced signalling; format: cell-based, C57BL/6 mice; conditions: I-BET treated cells
[7] = molecular target: GCN5 (Homo sapiens, UniProt Q92830); assay: histone acetyltransferase; format: biochemical
[8] = molecular target: p300 (Homo sapiens, UniProt Q09472); assay: histone acetyltransferase; format: biochemical
[9] = test system: panel of 38 unrelated proteins; assay: activity towards a panel of unrelated proteins; conditions: selectivity
[10] = test system: il6 promoter in bone marrow-derived macrophages; assay: ChIP of epigenetic marks at gene promoters in LPS-stimulated macrophages; format: cell-based, C57BL/6 mice; conditions: I-BET 5 μM
[11] = test system: other bromodomain-containing proteins from each arm of the phylogeny tree; assay: interaction with other bromodomain-containing proteins; format: binding; conditions: selectivity
[12] = test system: bone marrow-derived macrophages (BMDMs); format: cell-based, C57BL/6 mice; conditions: BMDM treatment with the HDAC inhibitor

pCAF, sequence (Q92831 whole entry, species assumed): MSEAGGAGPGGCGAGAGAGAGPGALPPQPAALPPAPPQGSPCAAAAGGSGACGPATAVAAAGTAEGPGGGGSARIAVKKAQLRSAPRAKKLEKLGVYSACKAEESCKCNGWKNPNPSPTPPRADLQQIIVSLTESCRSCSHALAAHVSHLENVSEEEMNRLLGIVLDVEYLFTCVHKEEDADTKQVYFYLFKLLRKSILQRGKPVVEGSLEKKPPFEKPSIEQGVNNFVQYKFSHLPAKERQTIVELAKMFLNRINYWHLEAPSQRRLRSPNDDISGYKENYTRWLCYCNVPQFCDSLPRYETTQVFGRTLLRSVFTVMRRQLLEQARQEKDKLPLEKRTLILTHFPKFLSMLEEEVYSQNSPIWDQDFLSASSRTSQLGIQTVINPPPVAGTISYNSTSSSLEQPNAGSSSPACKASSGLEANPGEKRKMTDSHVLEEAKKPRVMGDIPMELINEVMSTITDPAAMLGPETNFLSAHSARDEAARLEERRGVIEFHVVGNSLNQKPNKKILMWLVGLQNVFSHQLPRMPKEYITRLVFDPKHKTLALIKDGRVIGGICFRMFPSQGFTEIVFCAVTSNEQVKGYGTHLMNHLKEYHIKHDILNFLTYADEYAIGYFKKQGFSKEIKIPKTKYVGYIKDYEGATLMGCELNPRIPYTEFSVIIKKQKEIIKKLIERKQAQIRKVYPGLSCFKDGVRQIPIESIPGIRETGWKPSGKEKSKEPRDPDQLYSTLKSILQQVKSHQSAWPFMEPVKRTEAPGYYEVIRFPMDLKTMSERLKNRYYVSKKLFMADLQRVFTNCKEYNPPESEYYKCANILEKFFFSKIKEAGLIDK
p300, sequence (Q09472 whole entry, species assumed): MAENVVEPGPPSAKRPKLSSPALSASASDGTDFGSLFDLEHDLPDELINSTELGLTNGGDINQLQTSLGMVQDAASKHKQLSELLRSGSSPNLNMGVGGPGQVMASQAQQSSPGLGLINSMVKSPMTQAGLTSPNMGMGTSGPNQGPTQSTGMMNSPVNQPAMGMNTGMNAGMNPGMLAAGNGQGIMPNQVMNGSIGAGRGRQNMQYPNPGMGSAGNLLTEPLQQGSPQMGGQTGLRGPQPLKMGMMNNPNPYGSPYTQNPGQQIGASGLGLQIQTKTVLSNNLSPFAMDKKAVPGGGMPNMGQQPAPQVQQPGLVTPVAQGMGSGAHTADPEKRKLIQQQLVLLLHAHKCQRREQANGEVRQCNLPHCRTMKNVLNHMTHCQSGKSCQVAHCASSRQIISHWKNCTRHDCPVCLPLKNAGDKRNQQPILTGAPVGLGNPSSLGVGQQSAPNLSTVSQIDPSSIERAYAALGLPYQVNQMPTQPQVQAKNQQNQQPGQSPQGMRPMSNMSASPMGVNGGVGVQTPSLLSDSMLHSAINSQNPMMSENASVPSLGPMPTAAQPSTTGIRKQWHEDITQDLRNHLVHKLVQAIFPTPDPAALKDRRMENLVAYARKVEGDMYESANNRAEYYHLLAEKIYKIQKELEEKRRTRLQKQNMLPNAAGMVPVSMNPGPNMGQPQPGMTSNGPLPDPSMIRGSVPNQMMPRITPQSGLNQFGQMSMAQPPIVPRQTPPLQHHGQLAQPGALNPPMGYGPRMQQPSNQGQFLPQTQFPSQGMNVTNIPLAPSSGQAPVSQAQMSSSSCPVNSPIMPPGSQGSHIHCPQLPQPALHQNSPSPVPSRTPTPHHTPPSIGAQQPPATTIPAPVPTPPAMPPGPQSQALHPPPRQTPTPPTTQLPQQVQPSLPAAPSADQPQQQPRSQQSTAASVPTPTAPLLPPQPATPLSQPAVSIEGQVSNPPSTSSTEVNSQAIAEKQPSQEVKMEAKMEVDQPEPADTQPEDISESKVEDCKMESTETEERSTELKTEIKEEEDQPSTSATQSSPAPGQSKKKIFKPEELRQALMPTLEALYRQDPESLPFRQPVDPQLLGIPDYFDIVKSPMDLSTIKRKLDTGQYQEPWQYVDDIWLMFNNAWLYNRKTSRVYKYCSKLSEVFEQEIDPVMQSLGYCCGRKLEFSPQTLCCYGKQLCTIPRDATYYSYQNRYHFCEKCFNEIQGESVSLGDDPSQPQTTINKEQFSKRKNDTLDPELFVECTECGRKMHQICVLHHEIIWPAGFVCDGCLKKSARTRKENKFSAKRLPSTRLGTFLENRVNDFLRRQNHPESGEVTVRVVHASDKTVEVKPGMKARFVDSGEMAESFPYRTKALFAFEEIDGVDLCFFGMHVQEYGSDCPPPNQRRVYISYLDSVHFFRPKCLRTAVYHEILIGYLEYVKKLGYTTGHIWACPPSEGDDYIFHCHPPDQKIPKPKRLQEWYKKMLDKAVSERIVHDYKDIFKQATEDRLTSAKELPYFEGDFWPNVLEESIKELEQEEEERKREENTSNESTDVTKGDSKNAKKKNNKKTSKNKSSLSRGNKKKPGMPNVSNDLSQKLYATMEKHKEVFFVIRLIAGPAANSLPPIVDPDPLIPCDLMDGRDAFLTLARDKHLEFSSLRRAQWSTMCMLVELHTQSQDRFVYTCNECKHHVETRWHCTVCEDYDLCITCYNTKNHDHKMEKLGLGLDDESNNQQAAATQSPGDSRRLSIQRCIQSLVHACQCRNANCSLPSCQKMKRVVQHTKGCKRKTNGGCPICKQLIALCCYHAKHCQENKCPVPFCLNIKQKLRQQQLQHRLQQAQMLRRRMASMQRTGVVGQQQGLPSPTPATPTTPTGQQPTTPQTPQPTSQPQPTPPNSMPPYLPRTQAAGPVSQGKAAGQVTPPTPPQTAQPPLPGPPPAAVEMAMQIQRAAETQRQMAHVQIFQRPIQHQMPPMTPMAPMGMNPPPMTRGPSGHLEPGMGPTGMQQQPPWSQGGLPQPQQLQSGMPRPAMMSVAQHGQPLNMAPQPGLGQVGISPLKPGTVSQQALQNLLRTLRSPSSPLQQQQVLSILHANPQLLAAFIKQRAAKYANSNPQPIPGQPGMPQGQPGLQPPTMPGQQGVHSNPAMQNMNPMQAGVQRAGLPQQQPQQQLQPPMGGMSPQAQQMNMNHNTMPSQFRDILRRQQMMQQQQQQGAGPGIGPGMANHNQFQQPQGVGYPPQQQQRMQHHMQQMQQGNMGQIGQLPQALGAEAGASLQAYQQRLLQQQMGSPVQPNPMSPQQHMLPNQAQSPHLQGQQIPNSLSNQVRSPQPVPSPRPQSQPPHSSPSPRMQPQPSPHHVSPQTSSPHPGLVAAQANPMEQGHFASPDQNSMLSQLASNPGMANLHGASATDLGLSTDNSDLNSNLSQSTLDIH
GCN5, sequence (Q92830 whole entry, species assumed): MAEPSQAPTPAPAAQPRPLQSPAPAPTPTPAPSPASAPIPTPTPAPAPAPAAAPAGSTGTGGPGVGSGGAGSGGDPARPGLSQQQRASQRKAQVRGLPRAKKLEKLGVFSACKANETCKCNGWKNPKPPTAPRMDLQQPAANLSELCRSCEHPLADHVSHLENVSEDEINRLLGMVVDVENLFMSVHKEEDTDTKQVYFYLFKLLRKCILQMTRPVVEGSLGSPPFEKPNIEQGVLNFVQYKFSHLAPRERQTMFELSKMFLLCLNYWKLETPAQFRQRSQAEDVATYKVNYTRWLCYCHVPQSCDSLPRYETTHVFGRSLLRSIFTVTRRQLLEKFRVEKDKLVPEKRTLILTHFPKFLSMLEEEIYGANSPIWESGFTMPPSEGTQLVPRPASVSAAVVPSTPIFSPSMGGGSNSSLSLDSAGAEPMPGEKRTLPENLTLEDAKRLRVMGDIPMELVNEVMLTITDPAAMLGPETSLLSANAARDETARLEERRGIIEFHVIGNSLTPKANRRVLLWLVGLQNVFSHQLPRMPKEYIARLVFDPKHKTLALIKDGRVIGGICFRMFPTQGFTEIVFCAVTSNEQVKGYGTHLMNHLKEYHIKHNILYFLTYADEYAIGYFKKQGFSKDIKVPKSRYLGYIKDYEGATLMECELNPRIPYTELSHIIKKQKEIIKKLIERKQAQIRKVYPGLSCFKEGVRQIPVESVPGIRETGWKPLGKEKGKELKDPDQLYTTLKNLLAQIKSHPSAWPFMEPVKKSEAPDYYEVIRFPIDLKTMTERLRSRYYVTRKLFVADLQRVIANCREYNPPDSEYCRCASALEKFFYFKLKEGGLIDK

Row | Structure (SMILES) | number of LPS-inducible genes down-regulated ([1]; 1 hour after LPS) | number of LPS-inducible genes down-regulated ([1]; 4 hours after LPS) | expression of tnf, ccl2-5, cxcl1/2 ([1]; LPS-stimulated BMDMs) | effect on gene transcription [2] | suppression of HAT activity [3] | effect on viability of BMDMs [4] | suppression of HAT activity [5] | LPS-induced ERK phosphorylation and IκBα degradation [6] | suppression of HAT activity [7] | suppression of HAT activity [8] | activity towards a panel of 38 unrelated proteins [9] | BET recruitment at il6 promoter [10] | interaction with other bromodomain-containing proteins [11] | conversion of sI-BET genes into naI-BET genes [12]
1 | CCNC(=O)C[C@@H]1N=C(c2ccc(Cl)cc2)c2cc(OC)ccc2-n2c(C)nnc21 [I-BET] | 38 | 151 | not affected | marginal effect | inability of I-BET to suppress the activity | no effect | inability of I-BET to suppress the activity | unaltered pattern | inability of I-BET to suppress the activity | inability of I-BET to suppress the activity | no activity | marked reduction | did not interact | –
2 | CC(/C=C/C(=O)NO)=C\[C@@H](C)C(=O)c1ccc(N(C)C)cc1 [trichostatin A] | – | – | – | – | – | – | – | – | – | – | – | – | – | able to “convert” sI-BET into naI-BET genes
